Common to all, as to assay type: cell-based
For one experiment, the target named is human TLR7 (Homo sapiens (Human), UniProt Q9NYK1). As to the kind of experiment: TLR7 inhibition reporter assay (HEK-Blue, SEAP). The following applies: HEK-Blue cells overexpressing human TLR7, gardiquimod 7.5 μM stimulation. In short, it runs like this: (§1)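 After 30 min room-temperature pre-incubation with compound (0.05 nM–50 μM), reporter HEK-Blue lines were activated by ODN2006 5 nM for TLR9, R848 15.9 μM for TLR8 or gardiquimod 7.5 μM for TLR7. SEAP detected after 22 h, 37 °C; inhibition scaled between agonist+DMSO wells and known-inhibitor control.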
A general note: A reporter such as luciferase makes a cellular process visible.

A further experiment addresses human TLR8 (Homo sapiens (Human), UniProt Q9NR97). The experiment in a line: TLR8 inhibition reporter assay (HEK-Blue, SEAP). The following applies: HEK-Blue cells overexpressing human TLR8, R848 15.9 μM stimulation. In short, it runs like this: as §1
Another experiment concerns the target human TLR9 (Homo sapiens (Human), UniProt Q9NR96). As to the kind of experiment: TLR9 inhibition reporter assay (HEK-Blue, SEAP). The conditions noted are these: HEK-Blue cells overexpressing human TLR9, ODN2006 5 nM stimulation. In a few lines: as §1

The structures appear in SMILES notation. Some results are limits rather than exact numbers.

For 18 compounds, IC50 results are on record in US11420958B2, “Aryl and heteroaryl substituted indole compounds” (BRISTOL-MYERS SQUIBB COMPANY, priority 2017, dated 2022).

Sequence of human TLR7 (Q9NYK1 27-1049): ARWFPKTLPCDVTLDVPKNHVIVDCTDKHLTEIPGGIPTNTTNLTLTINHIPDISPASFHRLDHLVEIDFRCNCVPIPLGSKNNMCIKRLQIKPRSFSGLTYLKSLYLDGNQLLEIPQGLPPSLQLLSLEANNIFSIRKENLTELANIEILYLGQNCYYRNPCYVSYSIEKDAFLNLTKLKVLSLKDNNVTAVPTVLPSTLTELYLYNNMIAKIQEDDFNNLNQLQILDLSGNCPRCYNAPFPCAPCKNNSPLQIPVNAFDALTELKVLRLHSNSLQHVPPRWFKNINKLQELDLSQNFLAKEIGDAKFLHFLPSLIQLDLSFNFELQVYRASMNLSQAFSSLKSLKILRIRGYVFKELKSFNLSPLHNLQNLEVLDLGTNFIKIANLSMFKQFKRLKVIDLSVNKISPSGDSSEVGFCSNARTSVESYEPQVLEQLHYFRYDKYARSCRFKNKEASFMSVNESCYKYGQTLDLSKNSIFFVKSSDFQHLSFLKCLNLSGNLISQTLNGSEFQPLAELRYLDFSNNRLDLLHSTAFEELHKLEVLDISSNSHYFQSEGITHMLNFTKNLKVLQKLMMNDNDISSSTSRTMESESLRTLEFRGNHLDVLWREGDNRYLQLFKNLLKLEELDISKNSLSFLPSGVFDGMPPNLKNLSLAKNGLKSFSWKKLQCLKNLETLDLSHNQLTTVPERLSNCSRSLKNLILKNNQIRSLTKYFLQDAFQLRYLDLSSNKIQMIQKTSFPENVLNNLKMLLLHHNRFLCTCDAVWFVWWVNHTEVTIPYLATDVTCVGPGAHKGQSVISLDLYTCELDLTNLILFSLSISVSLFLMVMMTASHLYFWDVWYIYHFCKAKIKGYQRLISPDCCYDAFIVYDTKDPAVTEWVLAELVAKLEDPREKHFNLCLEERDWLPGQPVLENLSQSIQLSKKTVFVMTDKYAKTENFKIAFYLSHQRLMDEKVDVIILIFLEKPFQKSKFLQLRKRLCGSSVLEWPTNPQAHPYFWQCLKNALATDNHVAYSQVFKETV
Sequence of human TLR9 (Q9NR96 26-1032): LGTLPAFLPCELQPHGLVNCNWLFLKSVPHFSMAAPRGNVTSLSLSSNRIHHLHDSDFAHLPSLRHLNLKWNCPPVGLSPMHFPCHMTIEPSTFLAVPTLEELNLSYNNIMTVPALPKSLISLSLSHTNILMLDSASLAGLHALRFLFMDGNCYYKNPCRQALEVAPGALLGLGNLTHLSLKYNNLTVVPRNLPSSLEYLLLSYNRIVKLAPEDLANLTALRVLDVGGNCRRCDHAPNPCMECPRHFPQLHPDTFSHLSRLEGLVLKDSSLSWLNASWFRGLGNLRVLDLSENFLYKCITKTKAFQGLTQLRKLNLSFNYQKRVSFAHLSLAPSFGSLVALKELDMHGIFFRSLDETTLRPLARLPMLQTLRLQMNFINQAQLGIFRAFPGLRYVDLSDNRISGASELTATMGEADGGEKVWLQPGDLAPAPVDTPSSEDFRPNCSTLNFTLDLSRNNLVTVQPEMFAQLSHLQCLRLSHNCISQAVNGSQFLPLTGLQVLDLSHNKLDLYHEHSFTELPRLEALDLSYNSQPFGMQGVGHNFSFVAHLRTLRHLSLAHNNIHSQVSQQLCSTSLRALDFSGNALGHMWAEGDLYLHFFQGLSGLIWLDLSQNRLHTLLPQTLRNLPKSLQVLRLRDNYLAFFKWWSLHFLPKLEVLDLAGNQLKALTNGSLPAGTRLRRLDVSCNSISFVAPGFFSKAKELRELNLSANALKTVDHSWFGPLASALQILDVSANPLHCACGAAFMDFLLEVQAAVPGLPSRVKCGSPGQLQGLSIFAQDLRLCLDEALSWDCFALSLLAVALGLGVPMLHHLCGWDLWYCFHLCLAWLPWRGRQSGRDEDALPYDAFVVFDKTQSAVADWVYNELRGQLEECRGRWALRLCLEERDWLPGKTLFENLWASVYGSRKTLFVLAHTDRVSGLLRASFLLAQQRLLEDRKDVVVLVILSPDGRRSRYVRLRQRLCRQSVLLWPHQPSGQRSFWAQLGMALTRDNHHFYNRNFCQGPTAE
Sequence of human TLR8 (Q9NR97 27-1041): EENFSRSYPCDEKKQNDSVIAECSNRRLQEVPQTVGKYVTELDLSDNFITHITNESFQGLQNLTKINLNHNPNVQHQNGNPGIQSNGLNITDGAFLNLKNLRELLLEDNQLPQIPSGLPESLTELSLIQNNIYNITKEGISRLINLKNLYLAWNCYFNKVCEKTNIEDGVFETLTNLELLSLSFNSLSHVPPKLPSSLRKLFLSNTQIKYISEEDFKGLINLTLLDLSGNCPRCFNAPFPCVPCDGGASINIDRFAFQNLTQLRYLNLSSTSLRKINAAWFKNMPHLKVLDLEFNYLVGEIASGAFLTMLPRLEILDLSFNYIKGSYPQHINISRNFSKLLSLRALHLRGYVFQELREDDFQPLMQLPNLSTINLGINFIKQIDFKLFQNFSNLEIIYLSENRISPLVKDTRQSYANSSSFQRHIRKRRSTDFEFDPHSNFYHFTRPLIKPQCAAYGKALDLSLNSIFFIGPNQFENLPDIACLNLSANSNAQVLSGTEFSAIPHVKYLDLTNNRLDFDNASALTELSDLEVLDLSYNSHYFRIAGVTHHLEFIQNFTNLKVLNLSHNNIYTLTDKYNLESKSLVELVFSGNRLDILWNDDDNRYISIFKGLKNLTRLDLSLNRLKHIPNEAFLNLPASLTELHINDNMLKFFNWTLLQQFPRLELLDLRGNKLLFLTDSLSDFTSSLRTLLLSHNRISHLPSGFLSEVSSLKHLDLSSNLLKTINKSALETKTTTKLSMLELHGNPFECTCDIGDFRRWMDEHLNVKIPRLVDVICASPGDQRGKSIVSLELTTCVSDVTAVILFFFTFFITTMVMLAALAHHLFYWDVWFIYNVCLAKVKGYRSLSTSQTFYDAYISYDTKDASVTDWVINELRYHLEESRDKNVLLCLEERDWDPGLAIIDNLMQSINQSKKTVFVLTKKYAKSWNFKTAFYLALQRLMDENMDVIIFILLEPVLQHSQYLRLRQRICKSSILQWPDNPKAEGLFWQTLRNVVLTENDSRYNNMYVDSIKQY

As for `COc1ccc(-c2[nH]c3ccc(-c4nnc(C(=O)N(C)CCCN(C)C)o4)cc3c2C(C)C)cc1OC` [Example 96, 5-(2-(3,4-dimethoxyphenyl)-3-isopropyl-1H-indol-5-yl)-N-(3-(dimethylamino)propyl)-N-methyl-1,3,4-oxadiazole-2-carboxamide], the IC50 on human TLR7 is 49 nM; against human TLR8, 4.6 nM; against human TLR9 it was 1220 nM.

`COc1ccc(-c2[nH]c3ccc(-c4nnc(C(=O)N5CCN(c6cnccn6)CC5)o4)cc3c2C(C)C)cc1OC` [Example 97, (5-(2-(3,4-dimethoxyphenyl)-3-isopropyl-1H-indol-5-yl)-1,3,4-oxadiazol-2-yl)(4-(pyrazin-2-yl)piperazin-1-yl)methanone]: the IC50 is 936 nM on human TLR7, 239 nM on human TLR8 and above 50000 nM against human TLR9.

Turning to `COc1ccc(-c2[nH]c3ccc(-c4nnc(C(=O)N5CC[C@H](N(C)C)C5)o4)cc3c2C(C)C)cc1OC` [Example 98, (S)-(5-(2-(3,4-dimethoxyphenyl)-3-isopropyl-1H-indol-5-yl)-1,3,4-oxadiazol-2-yl)(3-(dimethylamino)pyrrolidin-1-yl)methanone], the IC50 against human TLR7 stood at 68 nM; at human TLR8, 17 nM; at human TLR9 it was 2660 nM.

Regarding `COc1ccc(-c2[nH]c3ccc(-c4nnc(C(=O)N5CCC(N6CCOCC6)C5)o4)cc3c2C(C)C)cc1OC` (stereo not drawn) [Example 99, (5-(2-(3,4-dimethoxyphenyl)-3-isopropyl-1H-indol-5-yl)-1,3,4-oxadiazol-2-yl)(3-morpholinopyrrolidin-1-yl)methanone], the IC50 turned out to be 565 nM at human TLR7, 86 nM against human TLR8 and 16300 nM on human TLR9.

Take `COc1ccc(-c2[nH]c3ccc(-c4nnc(C(=O)NCCNC(C)=O)o4)cc3c2C(C)C)cc1OC` [Example 100, N-(2-acetamidoethyl)-5-(2-(3,4-dimethoxyphenyl)-3-isopropyl-1H-indol-5-yl)-1,3,4-oxadiazole-2-carboxamide]: the IC50 at human TLR7 was 844 nM; on human TLR8, 31 nM; against human TLR9, above 50000 nM.

As for `COc1ccc(-c2[nH]c3ccc(-c4nnc(C(=O)NCCCn5ccnc5)o4)cc3c2C(C)C)cc1OC` [Example 101, N-(3-(1H-imidazol-1-yl)propyl)-5-(2-(3,4-dimethoxyphenyl)-3-isopropyl-1H-indol-5-yl)-1,3,4-oxadiazole-2-carboxamide], the IC50 worked out at 55 nM against human TLR7, 14 nM against human TLR8 and 3290 nM against human TLR9.

Turning to `CC(C)c1c(-c2ccnc3[nH]ncc23)[nH]c2ccc(-c3nnc(C4CCNCC4)o3)cc12` [Example 102, 2-(3-isopropyl-2-(1H-pyrazolo[3,4-b]pyridin-4-yl)-1H-indol-5-yl)-5-(piperidin-4-yl)-1,3,4-oxadiazole], the IC50 was determined as 125 nM against human TLR7, 11 nM against human TLR8 and 611 nM at human TLR9.

For the compound `CC(C)c1c(-c2ccnc3[nH]ncc23)[nH]c2ccc(-c3nnc([C@@H]4CCCNC4)o3)cc12` [Example 103, (R)-2-(3-isopropyl-2-(1H-pyrazolo[3,4-b]pyridin-4-yl)-1H-indol-5-yl)-5-(piperidin-3-yl)-1,3,4-oxadiazole], the IC50 was 54 nM against human TLR7, 5.4 nM against human TLR8 and 166 nM on human TLR9.

Consider `CC(C)c1c(-c2ccnc3[nH]ncc23)[nH]c2ccc(-c3nnc(C[C@@H]4CCCN4)o3)cc12` [Example 104, (S)-2-(3-isopropyl-2-(1H-pyrazolo[3,4-b]pyridin-4-yl)-1H-indol-5-yl)-5-(pyrrolidin-2-ylmethyl)-1,3,4-oxadiazole], for which the IC50 came to 31 nM against human TLR7, 1.7 nM against human TLR8 and 150 nM against human TLR9.

Turning to `COc1ccc(-c2[nH]c3ccc(-c4nnc(N5CCNCC5)o4)cc3c2C(C)C)cc1OC` [Example 105, 2-(2-(3,4-dimethoxyphenyl)-3-isopropyl-1H-indol-5-yl)-5-(piperazin-1-yl)-1,3,4-oxadiazole], the concentration for half-maximal inhibition (IC50) against human TLR7 was 19 nM; on human TLR8, 8.8 nM; against human TLR9 it was 1070 nM.

Regarding `COc1ccc(-c2[nH]c3ccc(-c4nnc(C5CCN(Cc6ccccc6)CC5)[nH]4)cc3c2C(C)C)cc1OC` [Example 106, 5-(5-(1-benzylpiperidin-4-yl)-4H-1,2,4-triazol-3-yl)-2-(3,4-dimethoxyphenyl)-3-isopropyl-1H-indole], the IC50 against human TLR7 amounted to 138 nM; against human TLR8 it was 45 nM; against human TLR9, 1710 nM.

With `COc1ccc(-c2[nH]c3ccc(-c4nnc(CN5CC6CNCC6C5)o4)cc3c2C(C)C)cc1OC` (stereo not drawn) [Example 107, 2-(2-(3,4-dimethoxyphenyl)-3-isopropyl-1H-indol-5-yl)-5-((hexahydropyrrolo[3,4-c]pyrrol-2(1H)-yl)methyl)-1,3,4-oxadiazole], the results for the IC50 against human TLR7, at human TLR8 and at human TLR9 were 228 nM, 23 nM and 2210 nM, respectively.

For the compound `COc1ccc(-c2[nH]c3ccc(-c4nnc(CNCCNC(C)=O)o4)cc3c2C(C)C)cc1OC` [Example 108, N-(2-(((5-(2-(3,4-dimethoxyphenyl)-3-isopropyl-1H-indol-5-yl)-1,3,4-oxadiazol-2-yl)methyl)amino)ethyl)acetamide], the IC50 against human TLR7 is 1980 nM; at human TLR8, 220 nM; on human TLR9, above 50000 nM.

Turning to `COCCNCc1nnc(-c2ccc3[nH]c(-c4ccc(OC)c(OC)c4)c(C(C)C)c3c2)o1` [Example 109, N-((5-(2-(3,4-dimethoxyphenyl)-3-isopropyl-1H-indol-5-yl)-1,3,4-oxadiazol-2-yl)methyl)-2-methoxyethan-1-amine], the IC50 at human TLR7 was 4160 nM; against human TLR8, 301 nM; against human TLR9 it was above 50000 nM.

With `C#CCNCc1nnc(-c2ccc3[nH]c(-c4ccc(OC)c(OC)c4)c(C(C)C)c3c2)o1` [Example 110, N-((5-(2-(3,4-dimethoxyphenyl)-3-isopropyl-1H-indol-5-yl)-1,3,4-oxadiazol-2-yl)methyl)prop-2-yn-1-amine], the IC50 at human TLR7 is 917 nM; on human TLR8 it was 734 nM; on human TLR9, above 50000 nM.

Turning to `CCOCCNCc1nnc(-c2ccc3[nH]c(-c4ccc(OC)c(OC)c4)c(C(C)C)c3c2)o1` [Example 111, N-((5-(2-(3,4-dimethoxyphenyl)-3-isopropyl-1H-indol-5-yl)-1,3,4-oxadiazol-2-yl)methyl)-2-ethoxyethan-1-amine], the IC50 is 157 nM against human TLR7, 266 nM against human TLR8 and above 50000 nM at human TLR9.

Turning to `COc1ccc(-c2[nH]c3ccc(-c4nnc(CNCCOCCO)o4)cc3c2C(C)C)cc1OC` [Example 112, 2-(2-(((5-(2-(3,4-dimethoxyphenyl)-3-isopropyl-1H-indol-5-yl)-1,3,4-oxadiazol-2-yl)methyl)amino)ethoxy)ethan-1-ol], the IC50 is 38 nM on human TLR7, 82 nM at human TLR8 and above 50000 nM against human TLR9.

`COc1ccc(-c2[nH]c3ccc(-c4nnc(CNCCS(=O)(=O)O)o4)cc3c2C(C)C)cc1OC` [Example 113, 2-(((5-(2-(3,4-dimethoxyphenyl)-3-isopropyl-1H-indol-5-yl)-1,3,4-oxadiazol-2-yl)methyl)amino)ethane-1-sulfonic acid]: the IC50 on human TLR7 is 219 nM; at human TLR8, 222 nM; against human TLR9, above 50000 nM.

Broadly, the IC50 is the point on the concentration scale where inhibition reaches its midpoint. Lower therefore signals inhibition by little substance.
